Results reported in ChEMBL document CHEMBL3217671, “l-Penicillamine is a mechanism-based inhibitor of serine palmitoyltransferase by forming a pyridoxal-5-phosphate-thiazolidine adduct” (Medchemcomm, 2012).
Calls of active or inactive are those of the source. No cut-off for these calls is given here.

What was measured:
[1] = molecular target: T1, Serine palmitoyltransferase (Sphingomonas paucimobilis) (UniProt Q93UV0); assay: Inhibition of Sphingomonas paucimobilis recombinant SPT expressed in Escherichia coli BL21(DE3) assessed as remaining activity at 5 mM after 30 mins by dialysis technique relative to control
T1 sequence (whole entry): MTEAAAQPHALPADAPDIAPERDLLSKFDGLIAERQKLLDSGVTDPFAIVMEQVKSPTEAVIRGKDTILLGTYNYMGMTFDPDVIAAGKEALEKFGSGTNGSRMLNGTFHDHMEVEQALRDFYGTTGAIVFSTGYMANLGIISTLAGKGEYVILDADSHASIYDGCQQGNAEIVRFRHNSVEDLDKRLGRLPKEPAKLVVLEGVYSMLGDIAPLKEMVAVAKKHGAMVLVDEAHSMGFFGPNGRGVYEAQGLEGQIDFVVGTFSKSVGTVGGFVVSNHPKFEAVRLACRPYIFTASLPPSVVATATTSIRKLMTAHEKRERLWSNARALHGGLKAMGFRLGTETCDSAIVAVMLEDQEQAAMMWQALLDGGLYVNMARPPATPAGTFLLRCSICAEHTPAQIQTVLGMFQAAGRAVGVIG

[2] = molecular target: T1, Serine palmitoyltransferase (Sphingomonas paucimobilis); assay: Reversible inhibition of Sphingomonas paucimobilis recombinant SPT expressed in Escherichia coli BL21(DE3) assessed as restoration of enzyme activity at 5 mM after 30 mins by dialysis technique in presence of PLP relative to control; parameters: scale not given: the % may be the effect or the level left
[3] = molecular target: T1, Serine palmitoyltransferase (Sphingomonas paucimobilis); assay: Binding affinity to Sphingomonas paucimobilis recombinant SPT expressed in Escherichia coli BL21(DE3) at 10 mM by UV-vis spectroscopic analysis; conditions: TDE = time-dependent effect
[4] = molecular target: T1, Serine palmitoyltransferase (Sphingomonas paucimobilis); assay: Reversible inhibition of Sphingomonas paucimobilis recombinant SPT expressed in Escherichia coli BL21(DE3) at 1 mM after 1 to 60 mins by UV-vis spectroscopic analysis in presence of Tris-HCl buffer
[5] = molecular target: T1, Serine palmitoyltransferase (Sphingomonas paucimobilis); assay: Reversible inhibition of Sphingomonas paucimobilis recombinant SPT expressed in Escherichia coli BL21(DE3) at 1 mM after 1 to 60 mins by UV-vis spectroscopic analysis in presence of potassium phosphate buffer
[6] = molecular target: T1, Serine palmitoyltransferase (Sphingomonas paucimobilis); assay: Binding affinity to Sphingomonas paucimobilis recombinant SPT expressed in Escherichia coli BL21(DE3) at 10 mM after 30 mins by UV-vis spectroscopic analysis
[7] = molecular target: T1, Serine palmitoyltransferase (Sphingomonas paucimobilis); assay: Inhibition of Sphingomonas paucimobilis recombinant SPT expressed in Escherichia coli BL21(DE3) by membrane filtration assay
[8] = molecular target: T1, Serine palmitoyltransferase (Sphingomonas paucimobilis); assay: Inhibition of Sphingomonas paucimobilis recombinant SPT expressed in Escherichia coli BL21(DE3) by dialysis technique in presence of PLP and potassium phosphate buffer
[9] = molecular target: T1, Serine palmitoyltransferase (Sphingomonas paucimobilis); assay: Binding affinity to Sphingomonas paucimobilis recombinant SPT expressed in Escherichia coli BL21(DE3) at 5 mM by ESI-FT-ICR mass spectrometric analysis

Activity [1] | Activity [2] | Activity [3] | inhibition [4] | inhibition [5] | Activity [6] | inhibition [7] | inhibition [8] | Activity [9] | SMILES
24% | 83% | tde | Active | inactive |  |  |  |  | N[C@@H](CS)C(=O)O
34% | 57% |  |  |  |  |  |  |  | CC(C)(S)[C@@H](N)C(=O)O
22% | 76% |  |  |  |  |  |  |  | N[C@H](CS)C(=O)O
3% | 80% |  |  |  | Active | Active | Active | Active | CC(C)(S)[C@H](N)C(=O)O
